According to PubChem BioAssay AID330 (DTP/NCI, 2004):
Values joined by “and” are separate entries in the source; they are usually repeats but may differ in a detail not shown here. Identical values can stand only once. Toxic doses and inconclusive results are not listed. Rule for the calls: active = survival T/C of 150% or more; inactive = T/C below 125% in these data.

Tested on: P388 leukemia ip, CD2F1 mice, survival T/C
Experiment: NCI In Vivo Anticancer Drug Screen. Data for tumor model P388 Leukemia (intraperitoneal) in CD2F1 (CDF1) mice
Conditions: endpoint: median survival time, higher = longer survival
Method in brief: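 Mice carrying the transplanted tumor received test compound or vehicle. Survival was recorded in each group, and the value is the treated-group measurement divided by that of the vehicle-treated control group.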

[1] = dose: 6.25 mg/kg/injection, schedule: Q01DX009 (ip), vehicle: saline with Tween-80
[2] = dose: 12.5 mg/kg/injection, schedule: Q01DX009 (ip), vehicle: saline with Tween-80
[3] = dose: 50.0 mg/kg/injection, schedule: Q01DX009 (ip), vehicle: saline
[4] = dose: 100.0 mg/kg/injection, schedule: Q01DX009 (ip), vehicle: saline
[5] = dose: 200.0 mg/kg/injection, schedule: Q01DX009 (ip), vehicle: saline
[6] = dose: 50.0 mg/kg/injection, schedule: Q01DX005 (ip), vehicle: saline with Tween-80
[7] = dose: 100.0 mg/kg/injection, schedule: Q01DX005 (ip), vehicle: saline with Tween-80
[8] = dose: 200.0 mg/kg/injection, schedule: Q01DX005 (ip), vehicle: saline with Tween-80
[9] = dose: 25.0 mg/kg/injection, schedule: Q01DX009 (ip), vehicle: saline with Tween-80
[10] = dose: 50.0 mg/kg/injection, schedule: Q01DX009 (ip), vehicle: saline with Tween-80
[11] = dose: 100.0 mg/kg/injection, schedule: Q01DX009 (ip), vehicle: saline with Tween-80
[12] = dose: 3.12 mg/kg/injection, schedule: Q01DX009 (ip), vehicle: saline with Tween-80
[13] = dose: 100.0 mg/kg/injection, schedule: Q04DX003 (ip), vehicle: Klucel (hydroxypropylcellulose) (HPC)
[14] = dose: 200.0 mg/kg/injection, schedule: Q04DX003 (ip), vehicle: Klucel (hydroxypropylcellulose) (HPC)
[15] = dose: 400.0 mg/kg/injection, schedule: Q04DX003 (ip), vehicle: Klucel (hydroxypropylcellulose) (HPC)

Measured: T/C

CN1CC2(c3ccccc3)CN(C)CC(c3ccccc3)(C1)C2=O
inactive: [1] 100 % of control | [2] 86 % of control

O=C(Oc1ccc[nH]c1=O)c1ccc(F)cc1
inactive: [3] 99 % of control and 104 % of control | [4] 100 % of control and 101 % of control | [5] 106 % of control and 108 % of control | dose: 400.0 mg/kg/injection, schedule: Q01DX009 (ip), vehicle: saline 111 % of control

O=C1C(Cl)=C(Nc2ccccc2)C(O)N1c1ccccc1 (stereo unspecified)
inactive: [6] 103 % of control | [7] 96 % of control | [8] 92 % of control

N=C1SC23CCCN2C(=O)C2(CCCN2C3=O)S1
inactive: dose: 100.0 mg/kg/injection, schedule: Q01DX001 (ip), vehicle: saline 96 % of control | dose: 200.0 mg/kg/injection, schedule: Q01DX001 (ip), vehicle: saline 92 % of control | dose: 400.0 mg/kg/injection, schedule: Q01DX001 (ip), vehicle: saline 92 % of control

C1=CC2C1C1OC1C1OC21 (stereo unspecified)
inactive: dose: 100.0 mg/kg/injection, schedule: Q04DX002 (ip), vehicle: saline with Tween-80 101 % of control | dose: 200.0 mg/kg/injection, schedule: Q04DX002 (ip), vehicle: saline with Tween-80 100 % of control | dose: 400.0 mg/kg/injection, schedule: Q04DX002 (ip), vehicle: saline with Tween-80 101 % of control

Cc1ccc(N2C(=O)CSC2=S)cc1Cl
inactive: [3] 103 % of control | [4] 94 % of control | [5] 100 % of control

O=C1CSC(c2ccccc2F)N1c1nccs1 (stereo unspecified)
inactive: dose: 50.0 mg/kg/injection, schedule: Q01DX005 (ip), vehicle: Klucel (hydroxypropylcellulose) (HPC) 100 % of control | dose: 100.0 mg/kg/injection, schedule: Q01DX005 (ip), vehicle: Klucel (hydroxypropylcellulose) (HPC) 103 % of control | dose: 200.0 mg/kg/injection, schedule: Q01DX005 (ip), vehicle: Klucel (hydroxypropylcellulose) (HPC) 109 % of control

CN1CC[C@H]([C@@H](O)c2ccccc2)C1=O
inactive: dose: 50.0 mg/kg/injection, schedule: Q01DX005 (ip), vehicle: saline 102 % of control | dose: 100.0 mg/kg/injection, schedule: Q01DX005 (ip), vehicle: saline 102 % of control | dose: 200.0 mg/kg/injection, schedule: Q01DX005 (ip), vehicle: saline 107 % of control

O=C(NC(CCS(=O)(=O)F)C(=O)OCc1ccccc1)OCc1ccccc1 (stereo unspecified)
inactive: dose: 12.5 mg/kg/injection, schedule: Q01DX009 (ip), vehicle: other 102 % of control | dose: 25.0 mg/kg/injection, schedule: Q01DX009 (ip), vehicle: other 97 % of control | dose: 50.0 mg/kg/injection, schedule: Q01DX009 (ip), vehicle: other 100 % of control | dose: 100.0 mg/kg/injection, schedule: Q01DX009 (ip), vehicle: other 102 % of control | dose: 200.0 mg/kg/injection, schedule: Q01DX009 (ip), vehicle: other 105 % of control

ClCSc1ccccc1C1=NCCCN1
inactive: dose: 0.78 mg/kg/injection, schedule: Q01DX005 (ip), vehicle: saline 107 % of control | dose: 1.56 mg/kg/injection, schedule: Q01DX005 (ip), vehicle: saline 107 % of control | dose: 3.12 mg/kg/injection, schedule: Q01DX005 (ip), vehicle: saline 102 % of control

O=C1CCCC2C3CC(CN12)C1CCCCN1C3 (stereo unspecified)
inactive: [9] 100 % of control | [10] 120 % of control | [11] 105 % of control

Cn1c(=O)oc2ccc(S(=O)(=O)Nc3ccc(Cl)cc3[N+](=O)[O-])cc21
inactive: dose: 50.0 mg/kg/injection, schedule: Q01DX005 (ip), vehicle: saline + Tween-80 + alcohol 94 % of control | dose: 100.0 mg/kg/injection, schedule: Q01DX005 (ip), vehicle: saline + Tween-80 + alcohol 101 % of control | dose: 200.0 mg/kg/injection, schedule: Q01DX005 (ip), vehicle: saline + Tween-80 + alcohol 102 % of control

Clc1ccc(C(c2ccc(Cl)cc2)C(Cl)(Cl)Cl)cc1
inactive: dose: 1.56 mg/kg/injection, schedule: Q01DX009 (ip), vehicle: saline with Tween-80 105 % of control | [12] 98 % of control | [1] 100 % of control | [2] 98 % of control | [10] 99 % of control

[NH-]C(CO)C(=O)O.[NH-]C(CO)C(=O)O.[Pd+2] (stereo unspecified)
inactive: dose: 3.13 mg/kg/injection, schedule: Q04DX003 (ip), vehicle: water 103 % of control | dose: 6.25 mg/kg/injection, schedule: Q04DX003 (ip), vehicle: water 100 % of control | dose: 12.5 mg/kg/injection, schedule: Q01DX009 (ip), vehicle: acid diluted with saline 108 % of control | dose: 12.5 mg/kg/injection, schedule: Q01DX009 (ip), vehicle: water 104 % of control and 113 % of control | dose: 12.5 mg/kg/injection, schedule: Q04DX003 (ip), vehicle: water 97 % of control | dose: 25.0 mg/kg/injection, schedule: Q01DX009 (ip), vehicle: acid diluted with saline 109 % of control | dose: 25.0 mg/kg/injection, schedule: Q01DX009 (ip), vehicle: water 108 % of control and 109 % of control | dose: 25.0 mg/kg/injection, schedule: Q04DX003 (ip), vehicle: water 103 % of control | dose: 50.0 mg/kg/injection, schedule: Q01DX009 (ip), vehicle: acid diluted with saline 113 % of control | dose: 50.0 mg/kg/injection, schedule: Q01DX009 (ip), vehicle: water 104 % of control and 117 % of control | dose: 50.0 mg/kg/injection, schedule: Q04DX003 (ip), vehicle: water 117 % of control | dose: 100.0 mg/kg/injection, schedule: Q01DX009 (ip), vehicle: acid diluted with saline 104 % of control | dose: 100.0 mg/kg/injection, schedule: Q01DX009 (ip), vehicle: water 86 % of control | dose: 100.0 mg/kg/injection, schedule: Q04DX003 (ip), vehicle: water 106 % of control

O=C(c1ccc(Cl)cc1)c1cnc2nc(-c3ccccc3)c(-c3ccccc3)nn12
inactive: dose: 6.25 mg/kg/injection, schedule: Q01DX005 (ip), vehicle: saline with Tween-80 97 % of control | dose: 12.5 mg/kg/injection, schedule: Q01DX005 (ip), vehicle: saline with Tween-80 98 % of control | dose: 25.0 mg/kg/injection, schedule: Q01DX005 (ip), vehicle: saline with Tween-80 97 % of control | [6] 103 % of control | [7] 113 % of control | [8] 115 % of control

CCOC1=Cc2c(oc3c(C(C)(C)C)cc(OCC)cc23)OC(C(C)(C)C)=C1
inactive: [12] 103 % of control | [1] 92 % of control | [2] 100 % of control | [9] 100 % of control

CC(=NCCN=C(C)c1ccc(Br)cc1)c1ccc(Br)cc1
inactive: [10] 91 % of control | [11] 92 % of control | dose: 200.0 mg/kg/injection, schedule: Q01DX009 (ip), vehicle: saline with Tween-80 91 % of control

CC(=N\O)/C(C)=N/O.CC(=N\O)/C(C)=N/O.CCCC1CC[N-]CC1.CCCC1CC[N-]CC1.CCCC1CC[N-]CC1.CCCC1CC[N-]CC1.[Cl-].[Cl-].[Cl][Rh][Cl].[Rh+3]
inactive: dose: 2.78 mg/kg/injection, schedule: Q01DX009 (ip), vehicle: saline with Tween-80 120 % of control

O=C(NNC(O)C(F)(F)F)c1ccccc1 (stereo unspecified)
inactive: [13] 103 % of control | [14] 103 % of control | [15] 110 % of control

FC(F)(F)c1ccccc1C(Nc1nncs1)Nc1nncs1
inactive: [6] 97 % of control | [7] 101 % of control | [8] 107 % of control

O=C1/C(=C/N2CCN(c3ccccc3)CC2)Cc2c(F)cccc21
inactive: [13] 100 % of control | [14] 97 % of control | [15] 100 % of control

O=C(COc1ccc(Cl)cc1Cl)N1CCNC1=O
inactive: dose: 50.0 mg/kg/injection, schedule: Q01DX009 (ip), vehicle: Klucel (hydroxypropylcellulose) (HPC) 103 % of control | dose: 100.0 mg/kg/injection, schedule: Q01DX009 (ip), vehicle: Klucel (hydroxypropylcellulose) (HPC) 98 % of control | dose: 200.0 mg/kg/injection, schedule: Q01DX009 (ip), vehicle: Klucel (hydroxypropylcellulose) (HPC) 97 % of control

CSc1nc(=O)n(CCC#N)nc1SC
inactive: dose: 60.0 mg/kg/injection, schedule: Q01DX005 (ip), vehicle: Klucel (hydroxypropylcellulose) (HPC) 98 % of control | dose: 120.0 mg/kg/injection, schedule: Q01DX005 (ip), vehicle: Klucel (hydroxypropylcellulose) (HPC) 92 % of control | dose: 240.0 mg/kg/injection, schedule: Q01DX005 (ip), vehicle: Klucel (hydroxypropylcellulose) (HPC) 92 % of control
